Assay results: patent publication US12458580B2, “Body ink compositions and applicators” (Inkbox Ink Inc., priority 2015, dated 2025)
Values after ≈ are worked out from the molar mass of the structure shown.

Columns and labels:
[1] = tested on: cells; settings: cited from earlier work
[2] = solubility limit of genipin in the liquid composition; type: physicochemical; settings: liquid composition: solvent with dissolved genipin; liquid form, solvent water or buffered water
Procedure: (§1) In liquid form, the composition consists of at least a solvent and dissolved genipin in an amount in the range of 10 mM to 200 mM (millimolar), with a preference towards the upper end of this range. […] The ultimate upper limit of 200 mM is the amount where the tattoo applicator becomes too stiff and ultimately impractical to use. The solvent may be pure water, or alternatively buffered water. It has been discovered that maintaining an optimal pH of 7.4 produces the highest degree of effectiveness. Use of a buffer allows such a pH to be accurately maintained at the optimal level of 7.4. However, for efficacy pure water may be used instead of buffered water. The pH of water is 7.0, which reasonably approximates the determined optimal pH, and is within a range of pH values which lead to preferred results. In a preferred embodiment, isopropyl alcohol or ethyl alcohol is added to the formulation to provide enhanced drying capabilities and increased genipin solubility.

[3] = tested on: human skin; experiment: staining (inking) of skin; type: in vivo; settings: liquid form, dissolved genipin
Procedure: as §1, with “solubility. Generally, the use of water as the solvent is preferred over other possible solvents because certain steps in the inking or staining reaction depend on water as a catalyst. […] Water has a viscosity of 1 centipoise (cP), which is a very low level and one that has been determined to be preferred for the composition of the invention. […]” for “solubility.”

[4] = at basic pH; cited from earlier work

solubility [2]: 95 mM (≈ 21.5 mg/mL)
Compound: COC(=O)C1=CO[C@@H](O)[C@@H]2C(CO)=CC[C@H]12 [genipin]
cytotoxicity (harmfulness to cells) [1]: low cytotoxicity
minimum concentration required for staining to take effect [3]: 10 mM
stability in solution [4]: unstable and undergoes self-polymerization
